For 15 compounds, inhibition and IC50 results are on record in US6130220A, “Sulfamide-metalloprotease inhibitors” (Syntex (USA) Inc., priority 1999, dated 2000).

Molecules are shown by their SMILES.

The test system of one experiment is TNF-α release from Human Monomac 6 cells. In words: Inhibition of TNF release in vitro, Monomac 6 cells, LPS/PMA. Type of experiment: cell-based. As to conditions: MONO-MAC-6, 2 μM, 2 h, read-out: TNF-α % inhibition, Conc. 2 μM. The method, then:
The activity of compounds of this invention in inhibiting the TNF release was determined, using the a minor modification of the method described in Pradines-Figueres, A. and Raetz, C. R. H., J. Biol. Chem., 267 (32), 23261, (1992).
Human Monomac 6 cells (Ziegler-Heitbrock, H. W. L., et al., Int. J. Cancer, 41, 456, (1988)) were cultured at 37° C. in RPMI 1640 medium containing 10% fetal calf serum to a density of 1×10^5 cells/ml. 0.23 ml of these cells were placed in each well of a tissue culture plate and the cells were incubated for 15 min. The test compounds were dissolved in above mentioned medium and added and the incubation was continued for an additional 15 min. 10 μl of an lipopolysaccharide/phorbol-12-myristate-13-acetate (LPS/PMA) mixture was added such that the final concentration of lipopolysaccharide was 10 ng/ml and the final concentration of phorbol-12-myristate-13-acetate was 30 ng/ml. The cells were incubated for 2 h after which the plate was centrifuged and the medium was removed and analyzed for TNF content. The analysis was performed using a TNF Quantikine® Inmunoassay (R & D Systems, Minneapolis, Minn. 55413) by following the manufacturer's protocol.
The TNF-α inhibitory activity of test materials, i.e., the measure of the TNF-α content in the test group relative to the vehicle treated group (control group) was: […]
As to `O=C(NO)C1CCCCN1S(=O)(=O)N1CC=C(c2ccc(Cl)cc2)CC1` (racemic) [compound 375, N-hydroxy-1-[4-(4-chlorophenyl)-1,2,3,6-tetrahydropyridine-1-sulfonyl]piperidine-2-(RS)-carboxamide], the inhibition at 2 µM is 85%.

Turning to `Cc1cc(C2=CCN(S(=O)(=O)N3CCN(C(=O)OCc4ccccc4)CC3C(=O)NO)CC2)ccc1F` (racemic) [compound 381, N-hydroxy-4-benzyloxycarbonyl-1-[4-(4-fluoro-3-methylphenyl)-1,2,3,6-tetrahydropyridine-1-sulfonyl]piperazine-2-(RS)-carboxamide], the inhibition at 2 µM turned out to be 10%.

Take `CN(C)C(=O)N1CCN(S(=O)(=O)N2CCC(c3ccc(F)cc3)CC2)[C@@H](C(=O)NO)C1` [compound 313, N-hydroxy-4-(N,N-dimethylaminocarbonyl)-1-[4-(4-fluorophenyl)piperidine-1-sulfonyl]piperazine-2-(R)-carboxamide]: the inhibition at 2 µM came to 73%.

`O=C(NO)[C@H]1CCCCN1S(=O)(=O)N1CCc2c([nH]c3ccccc23)C1` [compound 314, N-hydroxy-1-[1,2,3,4-tetrahydro-beta-carboline-2-sulfonyl]piperidine-2-(R)-carboxamide]: the inhibition at 2 µM came to 72%.

The experiment is the same for the next values; noted with them: MONO-MAC-6, 10 μM, 2 h, read-out: TNF-α % inhibition, Conc. 10 μM.
For `O=C(NO)C1CCCCN1S(=O)(=O)N1CCC(c2c[nH]c3ccc(F)cc23)CC1` (racemic) [compound 254, N-hydroxy-1-[4-(5-fluoroindol-3-yl)piperidine-1-sulfonyl]piperidine-2-(RS)-carboxamide], the inhibition at 10 µM is 94%.

Take `CC(=O)N1CCN(S(=O)(=O)N2CCC(C(=O)c3ccc(Cl)cc3)CC2)C(C(=O)NO)C1` (racemic) [compound 255, N-hydroxy-4-acetyl-1-[4-(4-chlorobenzoyl)piperidine-1-sulfonyl]piperazine-2-(RS)-carboxamide]: the inhibition at 10 µM was 97%.

With `Cc1cc(C2=CCN(S(=O)(=O)N3CCN(C(=O)OC(C)(C)C)CC3C(=O)NO)CC2)ccc1F` (racemic) [compound 384], the inhibition at 10 µM amounted to 96%.

Consider `O=C(NO)C(NS(=O)(=O)N1CC=C(c2ccc(Cl)cc2)CC1)c1ccc(F)cc1` (centres unmarked) [compound 409], for which the inhibition at 10 µM is 86%.

Another experiment addresses Collagenase-III. Briefly: MMP enzymatic assay, hydrolysis of MCA-Pro-Leu-Gly-Leu-DPA-Ala-Arg-NH2, Collagenase-III. It counts as biochemical. As to conditions: 37° C., pH 7.5, 2.5% DMSO. The protocol: The propeptide and catalytic domain portion of human collagenase-3 was expressed in E. Coli as an N-terminal fusion protein with ubiquitin. After purification, the catalytic domain was released by treatment with 1 mM APMA for 1 hour at 37° C., and then purified by zinc chelate chromatography.
Rat collagenase-3 was purified in active form from the culture media of uterine smooth muscle cells as described in Roswit, W. T. et al., Arch. Biochem. Biophys., 225, 285-295 (1983).
The matrix metalloprotease inhibitory activity of compounds of this invention in vitro was determined based on the hydrolysis of MCA-Pro-Leu-Gly-Leu-DPA-Ala-Arg-NH2 (Bachem, Inc.) at 37° C. as described in Knight, C. G., et al., FEBS Lett., 296, 263-266 (1992).
The matrix metalloprotease enzyme was diluted with assay buffer (50 mM Tricine pH 7.5, 200 mM NaCl, 10 mM CaCl2, and 0.005% Brij-35) containing 10 μmole of above substrate dissolved in DMSO. Compounds of the invention dissolved in DMSO or only DMSO (control samples) were added such that the final DMSO concentration in all assays was 2.5%. The fluorescence changes were monitored with a Perkin-Elmer LS-50B flourimeter using an excitation wavelength of 328 nm and an emission wavelength of 393 nm.
Compound `O=C(NO)C1CCCCN1S(=O)(=O)N1CCC(c2c[nH]c3ccc(F)cc23)CC1` (racemic) [compound 254, N-hydroxy-1-[4-(5-fluoroindol-3-yl)piperidine-1-sulfonyl]piperidine-2-(RS)-carboxamide] registered an IC50 of 181 nM.

Compound `CC(=O)N1CCN(S(=O)(=O)N2CCC(C(=O)c3ccc(Cl)cc3)CC2)C(C(=O)NO)C1` (racemic) [compound 255, N-hydroxy-4-acetyl-1-[4-(4-chlorobenzoyl)piperidine-1-sulfonyl]piperazine-2-(RS)-carboxamide] came in with an IC50 of 0.19 nM.

Compound `O=C(NO)C1CCCCN1S(=O)(=O)N1CCC(c2noc3cc(F)ccc23)CC1` (racemic) [compound 286, N-hydroxy-1-[4-(6-fluorobenzisoxazol-3-yl)piperidine-1-sulfonyl]piperidine-2-(RS)-carboxamide] showed a half-maximal inhibitory concentration (IC50) of 0.063 nM.

For the compound `CC(C)[C@H](C(=O)NO)N(Cc1ccccc1)S(=O)(=O)N1CCCCC1` [compound 1, N-hydroxy-2-(R)-[benzyl-(piperidine-1-sulfonyl)amino]-3-methylbutyramide], the midpoint of inhibition, the IC50, lay at 660 nM.

Compound `O=C(NO)C1(NS(=O)(=O)N2CCN(c3ccc(Cl)cn3)CC2)CCCCC1` [compound 342] gave an IC50 of 2.1 nM.

`O=C(NO)C1(NS(=O)(=O)N2CCN(c3ccc(Cl)cc3)CC2)CCCCC1` [compound 345, N-hydroxy-1-{[4-(4-chlorophenyl)piperazine-1-sulfonyl]amino}-cyclohexane-1-carboxamide]: half-maximal inhibition (IC50) required 6.6 nM.

In turn, `C[C@@H](NS(=O)(=O)N1CCN(c2ccc(Cl)cc2)CC1)C(=O)O` [compound 414, 2-(R)-{[4-(4-chlorophenyl)piperazino-1-sulfonyl]amino}propionic acid] gave an IC50 of 3400 nM.

Compound `CN(Cc1ccccc1)S(=O)(=O)N(CC(=O)O)Cc1ccccc1` [compound 430, 2-[benzyl-(benzylmethylaminosulfonyl)amino]acetic acid] returned an IC50 of 890 nM.

Take `C[C@H](C(=O)O)N(Cc1ccccc1)S(=O)(=O)NCc1ccccc1` [compound 431]: the IC50 came out at 6500 nM.
